According to paper PMC7377239, “Cardiovascular Effects of Polychlorinated Biphenyls and Their Major Metabolites” (Environmental Health Perspectives, 2020):
Where a name gives a salt, the structure may show the parent alone. Read-outs that look alike come from different tables or passages of the source.

Legend:
[1] = tested on: iCell endothelial cells (human iPSC-derived ECs); assay: Tube formation (tubulogenesis) assay in iCell endothelial cells, 18 h; format: cell-based; conditions: Homo sapiens, Endothelial cell; for activity at 0.1 µM: 0.10 µM
Outline: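 iCell ECs (passages 1–5) seeded 7,500 cells/well on reduced-growth-factor Geltrex in starvation medium, exposed overnight at 37°C to compounds in triplicate concentration–response (0.5% DMSO vehicle). Calcein AM staining, 4× imaging, angiogenesis image analysis; readouts normalized to vehicle, four-parameter logistic fit, POD at 1 SD of vehicle; 100 μM assigned NOAEL if no response.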

[2] = tested on: iCell endothelial cells (human iPSC-derived ECs); assay: High-content imaging cytotoxicity in iCell endothelial cells, 24 h; format: cell-based; conditions: Homo sapiens, Endothelial cell; for viability at 0.1 µM / activity at 0.1 µM: 0.10 µM
Outline: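 Human iPSC-derived endothelial cells (passages 1–5) were grown to a fibronectin-coated monolayer, then exposed 24 h at 37 °C with 0.5% DMSO vehicle. Staining was Hoechst 33342, MitoTracker Orange and calcein AM, read by high-content imaging. Point of departure came from 4-parameter logistic fits, with a 1-SD vehicle cutoff and 100 µM as the top concentration.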

[3] = iPSC-EC, 0.00 µM = 100.00, read-out: endo.mtl.18hr
[4] = iPSC-EC, 0.00 µM = 100.00, read-out: endo.tlps.18hr
[5] = iPSC-EC, 0.00 µM = 100.00, read-out: endo.tta.18hr
[6] = iPSC-EC, 0.00 µM = 100.00, read-out: endo.ttl.18hr
[7] = iPSC-EC, 0.00 µM = 100.00, read-out: endo.cyto.24hr
[8] = iPSC-EC, 0.00 µM = 100.00, read-out: endo.mito.24hr
[9] = iPSC-EC, 0.00 µM = 100.00, read-out: endo.mitoint.24hr
[10] = iPSC-EC, 0.00 µM = 100.00, read-out: endo.nma.24hr
[11] = iPSC-EC, 0.00 µM = 100.00, read-out: endo.tc.24hrs
[12] = endothelial cells (endo), tube formation mtl, 18 hr, read-out: POD endo.mtl.18hr
[13] = endothelial cells (endo), tube formation tlps, 18 hr, read-out: POD endo.tlps.18hr
[14] = endothelial cells (endo), tube formation tta, 18 hr, read-out: POD endo.tta.18hr
[15] = endothelial cells (endo), tube formation ttl, 18 hr, read-out: POD endo.ttl.18hr
[16] = endothelial cells (endo), cyto, 24 hr, read-out: POD endo.cyto.24hr
[17] = endothelial cells (endo), mito, 24 hr, read-out: POD endo.mito.24hr
[18] = endothelial cells (endo), mitoint, 24 hr, read-out: POD endo.mitoint.24hr
[19] = endothelial cells (endo), nma, 24 hr, read-out: POD endo.nma.24hr
[20] = endothelial cells (endo), tc, 24 hr, read-out: POD endo.tc.24hr

`COc1cc(Cl)c(-c2cc(Cl)ccc2Cl)cc1Cl` [4-OMe PCB52] gave an activity at 0.01 µM [1, 3] of 120%, an activity at 0.01 µM [1, 4] of 104% and an activity at 0.01 µM [1, 5] of 141%. It also gave an activity at 0.01 µM [1, 6] of 150%, an activity at 0.1 µM [1, 3] of 112% and an activity at 0.1 µM [1, 4] of 113%. It also gave an activity at 0.1 µM [1, 5] of 116%, an activity at 0.1 µM [1, 6] of 123% and an activity at 1 µM [1, 3] of 119%. It also gave an activity at 1 µM [1, 4] of 114%, an activity at 1 µM [1, 5] of 121% and an activity at 1 µM [1, 6] of 132%. It also gave an activity at 10 µM [1, 3] of 114%, an activity at 10 µM [1, 4] of 131% and an activity at 10 µM [1, 5] of 136%. The activity at 10 µM [1, 6] was 142%, the activity at 100 µM [1, 3] was 49.4% and the activity at 100 µM [1, 4] was 15.9%. The activity at 100 µM [1, 5] was 6.4%, the activity at 100 µM [1, 6] was 8.34% and the minimal effective concentration ([1]; iPSC-EC, 100.00 = highest concentration tested, read-out: endo.mtl.18hr POD) was 52 µM. The minimal effective concentration ([1]; iPSC-EC, 100.00 = highest concentration tested, read-out: endo.tlps.18hr POD) was 56 µM, the minimal effective concentration ([1]; iPSC-EC, 100.00 = highest concentration tested, read-out: endo.tta.18hr POD) was 51.6 µM and the minimal effective concentration ([1]; iPSC-EC, 100.00 = highest concentration tested, read-out: endo.ttl.18hr POD) was 54.7 µM. For the same compound, the viability at 0.01 µM [2, 7] was 104%, the activity at 0.01 µM [2, 8] was 104% and the activity at 0.01 µM [2, 9] was 88.9%. The activity at 0.01 µM [2, 10] was 102%, the viability at 0.01 µM [2, 11] was 104% and the viability at 0.1 µM [2, 7] was 101%. For the same compound, the activity at 0.1 µM [2, 8] was 101%, the activity at 0.1 µM [2, 9] was 88% and the activity at 0.1 µM [2, 10] was 102%. The viability at 0.1 µM [2, 11] was 101%, the viability at 1 µM [2, 7] was 104% and the activity at 1 µM [2, 8] was 103%. The activity at 1 µM [2, 9] was 84.8%, the activity at 1 µM [2, 10] was 100% and the viability at 1 µM [2, 11] was 104%. The viability at 10 µM [2, 7] was 106%, the activity at 10 µM [2, 8] was 106% and the activity at 10 µM [2, 9] was 92.2%. The activity at 10 µM [2, 10] was 99.7%, the viability at 10 µM [2, 11] was 106% and the viability at 100 µM [2, 7] was 53.2%. It also gave an activity at 100 µM [2, 8] of 48.4%, an activity at 100 µM [2, 9] of 74.5% and an activity at 100 µM [2, 10] of 117%. The viability at 100 µM [2, 11] was 56.6%, the minimal effective concentration ([2]; iPSC-EC, 100.00 = highest concentration tested, read-out: endo.cyto.24hr POD) was 43.5 µM and the minimal effective concentration ([2]; iPSC-EC, 100.00 = highest concentration tested, read-out: endo.mito.24hr POD) was 43.5 µM. For the same compound, the minimal effective concentration ([2]; iPSC-EC, 100.00 = highest concentration tested, read-out: endo.mitoint.24hr POD) was 100 µM, the minimal effective concentration ([2]; iPSC-EC, 100.00 = highest concentration tested, read-out: endo.nma.24hr POD) was 56.1 µM and the minimal effective concentration ([2]; iPSC-EC, 100.00 = highest concentration tested, read-out: endo.tc.24hrs POD) was 40.3 µM.
In the case of `COc1ccc(-c2cccc(Cl)c2)cc1Cl` [4-OMe-PCB 11, 4-methoxy-3,3′-dichlorobiphenyl], the minimal effective concentration [1, 12] is reported as 100 µM, the minimal effective concentration [1, 13] is reported as 28.4 µM and the minimal effective concentration [1, 14] is reported as 0.00169 µM. The minimal effective concentration [1, 15] was 0.00197 µM, the minimal effective concentration [2, 16] was 100 µM and the minimal effective concentration [2, 17] was 100 µM. For the same compound, the minimal effective concentration [2, 18] was 100 µM, the minimal effective concentration [2, 19] was 100 µM and the minimal effective concentration [2, 20] was 100 µM.
`COc1cc(Cl)c(-c2cc(Cl)ccc2Cl)cc1Cl` [4-OMe-PCB 52, 4-methoxy-2,2′,5,5′-tetrachlorobiphenyl] showed a minimal effective concentration [1, 12] of 52 µM, a minimal effective concentration [1, 13] of 56 µM and a minimal effective concentration [1, 14] of 51.6 µM. The minimal effective concentration [1, 15] was 54.7 µM, the minimal effective concentration [2, 16] was 43.5 µM and the minimal effective concentration [2, 17] was 43.5 µM. The minimal effective concentration [2, 18] was 100 µM, the minimal effective concentration [2, 19] was 56.1 µM and the minimal effective concentration [2, 20] was 40.3 µM.
`O=S(=O)(O)Oc1ccc(-c2cccc(Cl)c2)cc1Cl` [4-PCB 11 sulfate] gave a minimal effective concentration [1, 12] of 25.3 µM, a minimal effective concentration [1, 13] of 12.7 µM and a minimal effective concentration [1, 14] of 21 µM. The minimal effective concentration [1, 15] was 25.6 µM, the minimal effective concentration [2, 16] was 100 µM and the minimal effective concentration [2, 17] was 100 µM. It also gave a minimal effective concentration [2, 18] of 100 µM, a minimal effective concentration [2, 19] of 100 µM and a minimal effective concentration [2, 20] of 100 µM.
With `O=S(=O)(O)Oc1cc(Cl)c(-c2cc(Cl)ccc2Cl)cc1Cl` [4-PCB 52 sulfate] the minimal effective concentration [1, 12] was 7.44 µM, the minimal effective concentration [1, 13] was 5.74 µM and the minimal effective concentration [1, 14] was 8.83 µM. The minimal effective concentration [1, 15] was 9.64 µM, the minimal effective concentration [2, 16] was 41.2 µM and the minimal effective concentration [2, 17] was 41.2 µM. The minimal effective concentration [2, 18] was 100 µM, the minimal effective concentration [2, 19] was 100 µM and the minimal effective concentration [2, 20] was 50.3 µM.
